This assay concerns P388 leukemia ip, CD2F1 mice, survival T/C. In words: NCI In Vivo Anticancer Drug Screen. Data for tumor model P388 Leukemia (intraperitoneal) in CD2F1 (CDF1) mice. The following applies: endpoint: median survival time, higher = longer survival. An outline of the steps:
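Mice carrying the transplanted tumor received test compound or vehicle. Survival was recorded in each group, and the value is the treated-group measurement divided by that of the vehicle-treated control group.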

Where [1] appears, read: dose: 50.0 mg/kg/injection, schedule: Q01DX005 (ip), vehicle: saline with Tween-80.
Setting [2] is: dose: 60.0 mg/kg/injection, schedule: Q01DX005 (ip), vehicle: saline with Tween-80.
Setting [3] is: dose: 100.0 mg/kg/injection, schedule: Q01DX005 (ip), vehicle: saline with Tween-80.
[4] abbreviates: dose: 120.0 mg/kg/injection, schedule: Q01DX005 (ip), vehicle: saline with Tween-80.
[5] abbreviates: dose: 200.0 mg/kg/injection, schedule: Q01DX005 (ip), vehicle: saline with Tween-80.
[6] abbreviates: dose: 240.0 mg/kg/injection, schedule: Q01DX005 (ip), vehicle: saline with Tween-80.
[7] abbreviates: dose: 50.0 mg/kg/injection, schedule: Q01DX005 (ip), vehicle: Klucel (hydroxypropylcellulose) (HPC).
[8] abbreviates: dose: 100.0 mg/kg/injection, schedule: Q01DX005 (ip), vehicle: Klucel (hydroxypropylcellulose) (HPC).
[9] abbreviates: dose: 200.0 mg/kg/injection, schedule: Q01DX005 (ip), vehicle: Klucel (hydroxypropylcellulose) (HPC).
Setting [10] is: dose: 50.0 mg/kg/injection, schedule: Q01DX009 (ip), vehicle: saline.
Setting [11] is: dose: 100.0 mg/kg/injection, schedule: Q01DX009 (ip), vehicle: saline.
Where [12] appears, read: dose: 200.0 mg/kg/injection, schedule: Q01DX009 (ip), vehicle: saline.
[13] abbreviates: dose: 25.0 mg/kg/injection, schedule: Q01DX009 (ip), vehicle: Klucel (hydroxypropylcellulose) (HPC).
Where [14] appears, read: dose: 50.0 mg/kg/injection, schedule: Q01DX009 (ip), vehicle: Klucel (hydroxypropylcellulose) (HPC).
[15] abbreviates: dose: 100.0 mg/kg/injection, schedule: Q01DX009 (ip), vehicle: Klucel (hydroxypropylcellulose) (HPC).

Inconclusive results and toxic doses are left out. Peptide text beside a SMILES is read from it. * marks the point of attachment. Boc = CC(C)(C)OC(=O)*; NHNH2 = NN*

As for `CCc1n[nH]c(CC)c1CCCCCCOc1ccc(OC)cc1Cl`, the T/C reads like this: under setting [1], 102 % of control; under setting [2], 100 % of control; under setting [3], 105 % of control; under setting [4], 93 % of control; under setting [5], 108 % of control; under setting [6], 106 % of control.
Take `CC(=O)[C@H]1C[C@H](O)[C@H]2[C@@H]3CCC4=CC(=O)CC[C@]4(C)[C@H]3C[C@@H](O)[C@@]21C`: the T/C is 100 % of control under setting [7], 100 % of control under setting [8] and 97 % of control under setting [9].
Regarding `CN1C=CC=CC1=C1C(=O)c2ccccc2C1=O`, the T/C is 96 % of control under setting [7], 104 % of control under setting [8] and 107 % of control under setting [9].
Regarding `Clc1cccn2cnnc12`, the T/C reads like this: (dose: 50.0 mg/kg/injection, schedule: Q01DX009 (ip), vehicle: saline with Tween-80) 98 % of control; (dose: 100.0 mg/kg/injection, schedule: Q01DX009 (ip), vehicle: saline with Tween-80) 103 % of control; (dose: 200.0 mg/kg/injection, schedule: Q01DX009 (ip), vehicle: saline with Tween-80) 100 % of control.
Regarding `Cc1cccc(C)c1NC(=S)NC(=O)c1cccc(Cl)c1`, the T/C is, setting by setting: (dose: 25.0 mg/kg/injection, schedule: Q01DX005 (ip), vehicle: Klucel (hydroxypropylcellulose) (HPC)) 94 % of control; under setting [7], 92 % of control; under setting [8], 97 % of control.
Consider `FC(F)(F)c1cc(Cl)nc(Cl)n1`, for which the T/C was 106 % of control (dose: 6.0 mg/kg/injection, schedule: Q01DX005 (ip), vehicle: saline with Tween-80); 97 % of control (dose: 12.0 mg/kg/injection, schedule: Q01DX005 (ip), vehicle: saline with Tween-80); 92 % of control (dose: 25.0 mg/kg/injection, schedule: Q01DX005 (ip), vehicle: saline with Tween-80).
Turning to `CC(C)N1CCN(c2ccncc2S(=O)(=O)N2CCN(C)CC2)CC1`, the T/C reads like this: under setting [10], 106 % of control; under setting [11], 90 % of control; under setting [12], 99 % of control.
Take `CC[C@]1(O)CC(OC2CC(N(C)C)C(O)C(C)O2)c2c(cc3c(c2O)C(=O)c2c(O)cccc2C3=O)[C@@H]1C(=O)OC` (some centres undefined): the T/C was 95 % of control under setting [7], 96 % of control under setting [8] and 97 % of control under setting [9].
Turning to `CCOc1cc(=O)cc2n(-c3cc(OCC)c(OC)c(OCC)c3)c3ccccc3nc1-2`, the T/C (dose: 50.0 mg/kg/injection, schedule: Q01DX009 (ip), vehicle: suspension in saline) is 101 % of control; the T/C (dose: 100.0 mg/kg/injection, schedule: Q01DX009 (ip), vehicle: suspension in saline) was 101 % of control; the T/C (dose: 200.0 mg/kg/injection, schedule: Q01DX009 (ip), vehicle: suspension in saline) was 90 % of control.
As for `Cc1[nH]ccc(=O)c1O`, the T/C reads like this: (dose: 16.0 mg/kg/injection, schedule: Q01DX009 (ip), vehicle: saline with Tween-80) 105 % of control; (dose: 32.0 mg/kg/injection, schedule: Q01DX009 (ip), vehicle: saline with Tween-80) 110 % of control; under setting [10], 123 % of control; under setting [11], 124 % of control; under setting [12], 153 % of control; (dose: 400.0 mg/kg/injection, schedule: Q01DX009 (ip), vehicle: saline) 98 % of control. Besides, the T/C (dose: 512.0 mg/kg/injection, schedule: Q01DX009 (ip), vehicle: saline with Tween-80) was 91 % of control.
`CCC12OC(COc3ccccc3)CN1CCS2` (centres undefined): the T/C is 98 % of control under setting [1], 107 % of control under setting [3] and 99 % of control under setting [5].
As for `CC(NC(=O)C(Cc1c[nH]c2ccccc12)NC(=O)OC(C)(C)C)C(=O)NN` (stereo not drawn) (Boc-Trp-Ala-NHNH2; configuration not given here), the T/C is 98 % of control (dose: 12.5 mg/kg/injection, schedule: Q01DX009 (ip), vehicle: other); 100 % of control (dose: 25.0 mg/kg/injection, schedule: Q01DX009 (ip), vehicle: other); 105 % of control (dose: 50.0 mg/kg/injection, schedule: Q01DX009 (ip), vehicle: other); 109 % of control (dose: 100.0 mg/kg/injection, schedule: Q01DX009 (ip), vehicle: other); 119 % of control (dose: 200.0 mg/kg/injection, schedule: Q01DX009 (ip), vehicle: other).
With `Brc1nc(Br)c(Br)[nH]1`, the T/C (dose: 50.0 mg/kg/injection, schedule: Q01DX009 (ip), vehicle: saline sonified) was 91 % of control.
As to `Cn1c(=O)[nH]c(=O)c2nc(-c3ccccc3)c(-c3ccccc3)nc21`, the T/C was 96 % of control (dose: 100.0 mg/kg/injection, schedule: Q01DX001 (ip), vehicle: Klucel (hydroxypropylcellulose) (HPC)); 99 % of control (dose: 200.0 mg/kg/injection, schedule: Q01DX001 (ip), vehicle: Klucel (hydroxypropylcellulose) (HPC)); 96 % of control (dose: 400.0 mg/kg/injection, schedule: Q01DX001 (ip), vehicle: Klucel (hydroxypropylcellulose) (HPC)).
On to `CN(C)CCCSc1n[nH]c(=O)[nH]c1=O`, for which the T/C reads like this: (dose: 25.0 mg/kg/injection, schedule: Q01DX005 (ip), vehicle: distilled water + alcohol) 111 % of control; (dose: 50.0 mg/kg/injection, schedule: Q01DX005 (ip), vehicle: distilled water + alcohol) 104 % of control; (dose: 100.0 mg/kg/injection, schedule: Q01DX005 (ip), vehicle: distilled water + alcohol) 95 % of control; (dose: 200.0 mg/kg/injection, schedule: Q01DX005 (ip), vehicle: distilled water + alcohol) 92 % of control.
On to `CC(=O)OCC1OC(n2cc(F)c(=O)[nH]c2=O)C(OC(C)=O)C1OC(C)=O` (centres undefined), for which the T/C (dose: 1.56 mg/kg/injection, schedule: Q01DX009 (ip), vehicle: Klucel (hydroxypropylcellulose) (HPC)) is 110 % of control; the T/C (dose: 6.25 mg/kg/injection, schedule: Q01DX009 (ip), vehicle: Klucel (hydroxypropylcellulose) (HPC)) is 151 % of control; the T/C (dose: 12.5 mg/kg/injection, schedule: Q01DX009 (ip), vehicle: Klucel (hydroxypropylcellulose) (HPC)) is 108 % of control; the T/C under setting [13] was 89 % of control; the T/C under setting [14] was 89 % of control; the T/C under setting [15] is 88 % of control.
For the molecule `C=CC(C)(C)C1Oc2cc(OC)ccc2C(=O)C1c1ccc(OC)c(OC)c1O` (centres undefined), the T/C was 99 % of control (dose: 100.0 mg/kg/injection, schedule: Q04DX003 (ip), vehicle: Klucel (hydroxypropylcellulose) (HPC)); 98 % of control (dose: 200.0 mg/kg/injection, schedule: Q04DX003 (ip), vehicle: Klucel (hydroxypropylcellulose) (HPC)); 96 % of control (dose: 400.0 mg/kg/injection, schedule: Q04DX003 (ip), vehicle: Klucel (hydroxypropylcellulose) (HPC)).
As for `Cn1nnc(-c2ccc(C(=O)O)cc2)n1`, the T/C under setting [7] is 91 % of control and the T/C under setting [8] was 91 % of control.
As to `Cc1cc(C)c(CC(=O)O)c(C)c1`, the T/C under setting [13] is 111 % of control; the T/C under setting [14] is 106 % of control; the T/C under setting [15] was 105 % of control; the T/C (dose: 200.0 mg/kg/injection, schedule: Q01DX009 (ip), vehicle: Klucel (hydroxypropylcellulose) (HPC)) is 107 % of control.
Take `COCC(=O)OC`: the T/C was 97 % of control (dose: 25.0 mg/kg/injection, schedule: Q01DX009 (ip), vehicle: saline); 100 % of control under setting [10]; 98 % of control under setting [11]; 92 % of control under setting [12].
`CCCCOc1cccc2c(NCCCCNCCCNc3c4ccccc4nc4c(OCCCC)cccc34)c3ccccc3nc12`: the T/C (dose: 0.63 mg/kg/injection, schedule: Q01DX009 (ip), vehicle: other) was 105 % of control; the T/C (dose: 1.25 mg/kg/injection, schedule: Q01DX009 (ip), vehicle: other) was 120 % of control; the T/C (dose: 2.5 mg/kg/injection, schedule: Q01DX009 (ip), vehicle: other) is 111 % of control; the T/C (dose: 5.0 mg/kg/injection, schedule: Q01DX009 (ip), vehicle: other) is 121 % of control.
As for `O=C(Nc1ccc(Nc2ccccc2)cc1)Nc1cc([N+](=O)[O-])ccc1Cl`, the T/C is 90 % of control under setting [2], 98 % of control under setting [4] and 103 % of control under setting [6].

The record behind these values is PubChem BioAssay AID330 (DTP/NCI, 2004).
